# Measured values from patent EP2876105A1, “1-(CYCLOALKYL-CARBONYL)PROLINE DERIVATIVE” (Sumitomo Dainippon Pharma Co., Ltd., priority 2012, dated 2014).
# Molecular target: human FXIa (Homo sapiens, UniProt P03951)
# Assay: In vitro activated factor XI (FXIa) inhibition test
# Assay type: biochemical
# Conditions: not given
# Description: To the substrate, S-2366 (pyroGlu-Pro-Arg-pNA•HCl) was added to a final concentration of 300 µmol/L. After the reaction had progressed, the absorbance at OD 405 nm was measured. […]
# Sequence of human FXIa (P03951 388-625 limits assumed): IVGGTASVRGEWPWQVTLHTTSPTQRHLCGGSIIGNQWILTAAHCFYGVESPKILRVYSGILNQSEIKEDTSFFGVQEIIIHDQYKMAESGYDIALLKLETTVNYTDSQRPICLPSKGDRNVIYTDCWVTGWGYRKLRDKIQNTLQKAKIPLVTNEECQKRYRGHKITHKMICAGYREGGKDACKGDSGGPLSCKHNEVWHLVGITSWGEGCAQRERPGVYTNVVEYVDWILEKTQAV
# Sequence of human FXIa (P03951 19-387 partner limits assumed): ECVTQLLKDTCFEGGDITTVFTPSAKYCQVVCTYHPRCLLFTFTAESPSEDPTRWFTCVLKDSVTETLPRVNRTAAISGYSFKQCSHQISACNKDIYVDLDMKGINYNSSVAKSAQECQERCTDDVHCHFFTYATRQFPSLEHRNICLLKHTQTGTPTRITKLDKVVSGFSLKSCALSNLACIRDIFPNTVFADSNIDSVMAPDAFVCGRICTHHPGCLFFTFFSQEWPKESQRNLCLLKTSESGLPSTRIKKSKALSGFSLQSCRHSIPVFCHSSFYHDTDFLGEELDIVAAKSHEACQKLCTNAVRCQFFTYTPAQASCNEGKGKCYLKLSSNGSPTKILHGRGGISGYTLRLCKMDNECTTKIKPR
row,SMILES,IC50
1,COC1CCC([C@@H]2CCN(C(=O)[C@H]3CC[C@H]([C@H](N)CF)CC3)[C@@H]2C(=O)Nc2ccc3oc(C(=O)O)cc3c2)CC1 (stereo partly shown) [compound 102],93 nM
2,NC(CF)[C@H]1CC[C@H](C(=O)N2CC[C@@H](C3CCCCC3)[C@H]2C(=O)Nc2ccc3oc(C(=O)O)cc3c2)CC1 (stereo partly shown) [compound 50],84 nM
3,N[C@H](CF)[C@H]1CC[C@H](C(=O)N2CC[C@@H](C3CCCCC3)[C@H]2C(=O)Nc2ccc3oc(C(=O)NS(=O)(=O)c4ccccc4)cc3c2)CC1 [compound 121],43 nM
4,N[C@H](CF)[C@H]1CC[C@H](C(=O)N2CC[C@H](c3ccccc3)[C@H]2C(=O)Nc2ccc3[nH]c(C(=O)NS(=O)(=O)N4CCOCC4)cc3c2)CC1 [compound 122],690 nM
5,COCCOCCCOC(=O)c1cc2cc(NC(=O)[C@@H]3[C@H](C4CCC(OC)CC4)CCN3C(=O)[C@H]3CC[C@H]([C@H](N)CF)CC3)ccc2o1 (stereo partly shown) [compound 196],3500 nM
6,"N[C@H](CF)[C@H]1CC[C@H](C(=O)N2CCC(C3CCCCC3)[C@H]2C(=O)Nc2ccc3sc(C(=O)O)cc3c2)CC1 (single isomer, unassigned) [compound 130]",195 nM
7,N[C@H](CF)[C@H]1CC[C@H](C(=O)N2CC[C@@H](C3CCCCC3)[C@H]2C(=O)Nc2ccc(C(=O)NS(=O)(=O)c3ccccn3)cc2)CC1 [compound 134],54 nM
8,N[C@H](CF)[C@H]1CC[C@H](C(=O)N2CC[C@@H](C3CCCCC3)[C@H]2C(=O)Nc2ccc(C(=O)NS(=O)(=O)c3ccccc3)cc2)CC1 [compound 118],65 nM

# Same assay, conditions: 0.35 µg/mL human FXIa, substrate S-2366 300 µmol/L, 37°C, 10 minutes, OD 405 nm; read-out: FXIa inhibitory activity IC50
row,SMILES,IC50
1,CN(C)S(=O)(=O)NC(=O)c1cc2cc(NC(=O)[C@@H]3[C@H](C4CCCCC4)CCN3C(=O)[C@H]3CC[C@H]([C@H](N)CF)CC3)ccc2o1 [compound 211],29 nM
2,Cc1noc(-c2ccc(NC(=O)[C@@H]3[C@H](C4CCCCC4)CCN3C(=O)[C@H]3CC[C@H]([C@H](N)CF)CC3)cc2)n1 [compound 115],1500 nM
3,N[C@H](CF)[C@H]1CC[C@H](C(=O)N2CC[C@@H](C3CCCCC3)[C@H]2C(=O)Nc2ccc(C(=O)NS(=O)(=O)c3ccccc3)c(F)c2)CC1 [compound 133],99 nM
4,CS(=O)(=O)NC(=O)c1cc2cc(NC(=O)[C@@H]3[C@H](C4CCCCC4)CCN3C(=O)[C@H]3CC[C@H]([C@H](N)CF)CC3)ccc2[nH]1 [compound 114],7 nM
5,NC[C@H]1CC[C@H](C(=O)N2CC[C@@H](c3ccccc3)[C@H]2C(=O)Nc2ccc(-c3nc(=O)o[nH]3)c(F)c2)CC1 [compound 14],130 nM
6,Cc1c(C(=O)O)[nH]c2ccc(NC(=O)[C@@H]3[C@H](C4CCCCC4)CCN3C(=O)[C@H]3CC[C@H](C(N)CF)CC3)cc12 (stereo partly shown) [compound 39],63 nM
7,NC(CF)[C@H]1CC[C@H](C(=O)N2CC[C@@H](C3CCCCC3)[C@H]2C(=O)Nc2ccc3[nH]c(C(=O)O)cc3c2)CC1 (stereo partly shown) [compound 35],14 nM
8,N[C@H](CF)[C@H]1CC[C@H](C(=O)N2CC[C@@H](C3CCCCC3)[C@H]2C(=O)Nc2ccc3[nH]c(C(=O)O)c(Cl)c3c2)CC1 [compound 184],30 nM
9,N[C@H](C(F)F)[C@H]1CC[C@H](C(=O)N2CC[C@@H](C3CCCCC3)[C@H]2C(=O)Nc2ccc3oc(C(=O)O)cc3c2)CC1 [compound 146],916 nM
10,COC(=O)Nc1nc2ccc(NC(=O)[C@@H]3[C@H](C4CCCCC4)CCN3C(=O)[C@H]3CC[C@H]([C@H](N)CF)CC3)cc2s1 [compound 148],140 nM
11,NC[C@H]1CC[C@H](C(=O)N2CCC(c3ccccc3)[C@H]2C(=O)Nc2ccc3[nH]c(C(N)=O)cc3c2)CC1 (stereo partly shown) [compound 24],34 nM
12,Cc1c(C(=O)O)oc2ccc(NC(=O)[C@@H]3[C@H](C4CCCCC4)CCN3C(=O)[C@H]3CC[C@H]([C@H](N)CF)CC3)cc12 [compound 55],220 nM
13,N[C@H](CF)[C@H]1CC[C@H](C(=O)N2CC[C@@H](C3CCCCC3)[C@H]2C(=O)Nc2ccc(C(=O)O)cc2)CC1 [compound 96],98 nM
14,Cn1c(C(=O)O)cc2cc(NC(=O)[C@@H]3[C@H](C4CCCCC4)CCN3C(=O)[C@H]3CC[C@H](C(N)CF)CC3)ccc21 (stereo partly shown) [compound 29],82 nM
